The source of these data is US11286234B2, “Phenyl urea derivatives as N-formyl peptide receptor modulators” (Allergan, Inc., priority 2016, dated 2022).

Assay [1] addresses T1, FPR1 (Homo sapiens, UniProt P21462).
T1 construct: expressed in transfected cells
T1 sequence (P21462 1-350): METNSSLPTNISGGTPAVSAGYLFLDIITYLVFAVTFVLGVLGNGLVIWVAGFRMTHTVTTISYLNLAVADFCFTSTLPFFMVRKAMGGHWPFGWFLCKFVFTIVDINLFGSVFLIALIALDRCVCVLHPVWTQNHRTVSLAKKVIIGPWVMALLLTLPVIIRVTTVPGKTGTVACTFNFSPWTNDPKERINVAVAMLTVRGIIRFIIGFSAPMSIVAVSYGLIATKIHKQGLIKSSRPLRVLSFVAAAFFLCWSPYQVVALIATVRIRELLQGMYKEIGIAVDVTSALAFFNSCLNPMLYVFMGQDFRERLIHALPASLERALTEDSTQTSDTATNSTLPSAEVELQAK
The assay can be described thus: Compound-induced calcium activity (FLIPR Tetra) in CHO-Gα16 cells stably expressing FPR1. The class given is cell-based. The note with it: for EC50 / Emax: CHO-Gα16 cells stably expressing FPR1; for EC50: calcium activity, tested 0.61 to 10,000 nM, read-out: FPR1 Ga16-CHO EC50; for Emax: efficacy value in brackets, read-out: FPR1 Ga16-CHO (% eff); for Ratio FPR2:FPR1 (EC50): ratio of the EC50 for agonizing FPR2 to the EC50 for agonizing FPR1. The procedure:
(§1) CHO-Gα16 cells stably expressing FPR1 or FPR2 were cultured in: Ham's F12 nutrient media, 10% fetal bovine serum, 1% PSA (penicillin, streptomycin, amphotericin B antiobiotic/antimycotic), 400 μg/ml geneticin and 50 μg/ml hygromycin. In general, the day before the experiment, 18,000 cells/well were plated in a 384-well clear bottom poly-D-lysine coated plate. The following day the screening compound-induced calcium activity was assayed on the FLIPR^Tetra. The drug plates were prepared in 384-well microplates using the EP3 and the MultiPROBE robotic liquid handling systems. Compounds were tested at concentrations ranging from 0.61 to 10,000 nM. Results are expressed as EC50 (nM) and efficacy values.

The target of assay [2] is T2, FPR2 (Homo sapiens, UniProt P25090).
T2 construct: expressed in transfected cells
T2 sequence (P25090 1-351): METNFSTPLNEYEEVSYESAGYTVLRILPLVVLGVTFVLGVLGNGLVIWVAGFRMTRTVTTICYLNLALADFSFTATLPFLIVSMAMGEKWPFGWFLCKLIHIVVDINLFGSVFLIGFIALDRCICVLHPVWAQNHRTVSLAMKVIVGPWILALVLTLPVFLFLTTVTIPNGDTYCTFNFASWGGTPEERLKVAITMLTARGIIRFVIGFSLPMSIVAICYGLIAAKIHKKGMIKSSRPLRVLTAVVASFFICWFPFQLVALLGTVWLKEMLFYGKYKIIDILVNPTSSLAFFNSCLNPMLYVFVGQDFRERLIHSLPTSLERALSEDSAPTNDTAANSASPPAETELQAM
The assay is described as follows: Compound-induced calcium activity (FLIPR Tetra) in CHO-Gα16 cells stably expressing FPR2. The class given is cell-based. The following applies: for EC50: calcium activity, tested 0.61 to 10,000 nM, read-out: FPR2 Ga16-CHO EC50; for Emax: efficacy value in brackets, read-out: FPR2 Ga16-CHO (% eff). As for the experimental part:
as §1

Usually EC50 stands for the concentration at which the effect is half-maximal. Consider `CC(C)CC(CNC(=O)Nc1ccc(Br)cc1)C(=O)NCC(=O)OC(C)(C)C` (stereo not drawn) [Compound 31, t-Butyl ({2-[({[(4 bromophenyl)amino]carbonyl}amino)methyl]-4-methylpentanoyl}amino)acetate], for which, in assay [1], the EC50 amounted to 552 nM, the Emax came out at 98% and the “Ratio FPR2:FPR1 (EC50)” value is recorded as 2.7. In assay [2], the EC50 is 1500 nM and the Emax amounted to 18%.

Regarding `CC(C)CC(CNC(=O)Nc1ccc(Br)cc1)C(=O)N(C)CC(=O)OC(C)(C)C` (stereo not drawn) [Compound 32, tert-Butyl 2-(2-((3-(4-bromophenyl)ureido)methyl)-N,4-dimethylpentanamido)acetate], in assay [1], the EC50 came out at 2510 nM, the Emax worked out at 73% and the “Ratio FPR2:FPR1 (EC50)” value amounted to 0.41. In addition, in assay [2], the EC50 amounted to 1030 nM and the Emax amounted to 89%.

`CC(C)CC(CNC(=O)Nc1ccc(Br)cc1)C(=O)NCc1nnn[nH]1` (stereo not drawn) [Compound 33, N-((1H-tetrazol-5-yl)methyl)-2-((3-(4-bromophenyl)ureido)methyl)-4-methylpentanamide]: in assay [1], the EC50 came out at 13 nM, the Emax turned out to be 95% and the “Ratio FPR2:FPR1 (EC50)” value came to 10. Besides, in assay [2], the EC50 was 130 nM and the Emax is 98%.

In the case of `CC(C)CC(CNC(=O)Nc1ccc(Br)cc1)C(=O)N(C)C` (stereo not drawn) [Compound 34, 2-((3-(4-bromophenyl)ureido)methyl)-N,N,4-trimethylpentanamide], in assay [1], the EC50 is 6320 nM, the Emax is 69% and the “Ratio FPR2:FPR1 (EC50)” value is less than 1. In addition, in assay [2], the EC50 stood at 314 nM and the Emax was determined as 92%.

For the compound `CC(C)CC(CNC(=O)Nc1ccc(Br)cc1)C(N)=O` (stereo not drawn) [Compound 35, 2-((3-(4-bromophenyl)ureido)methyl)-4-methylpentanamide], in assay [1], the EC50 was found to be 7090 nM, the Emax worked out at 80% and the “Ratio FPR2:FPR1 (EC50)” value is reported as 0.14. In assay [2], the EC50 was 975 nM and the Emax is 95%.

As to `CC(C)CC(CNC(=O)Nc1ccc(Br)cc1)C(=O)NCC(=O)O` (stereo not drawn) [Compound 36, ({2-[({[(4-bromophenyl)amino]carbonyl}amino)methyl]-4-methylpentanoyl}amino)acetic acid], in assay [1], the EC50 stood at 156 nM, the Emax stood at 95% and the “Ratio FPR2:FPR1 (EC50)” value is given as 6.4. In assay [2], the EC50 worked out at 1000 nM and the Emax was found to be 43%.

In the case of `CC(C)CC(CNC(=O)Nc1ccc(Br)cc1)C(=O)N(C)CC(=O)O` (stereo not drawn) [Compound 37, 2-(2-((3-(4-bromophenyl)ureido)methyl)-N,4-dimethylpentanamido)acetic acid], in assay [1], the EC50 was found to be 55 nM, the Emax was 96% and the “Ratio FPR2:FPR1 (EC50)” value was found to be 0.22. In addition, in assay [2], the EC50 turned out to be 12 nM and the Emax was found to be 104%.

Turning to `COC(=O)C(CNC(=O)CNC(=O)Nc1ccc(Br)cc1)CC(C)C` (stereo not drawn) [Compound 38], in assay [1], the EC50 amounted to 2600 nM, the Emax is 77% and the “Ratio FPR2:FPR1 (EC50)” value was 0.83. For the same compound, in assay [2], the EC50 came out at 2170 nM and the Emax turned out to be 80%.

For `CC(C)CC(CNC(=O)CNC(=O)Nc1ccc(Br)cc1)C(=O)O` (stereo not drawn) [Compound 39, 2-((2-(3-(4-Bromophenyl)ureido)acetamido)methyl)-4-methylpentanoic acid], in assay [1], the EC50 came to 19 nM, the Emax worked out at 96% and the “Ratio FPR2:FPR1 (EC50)” value is listed as 88. Besides, in assay [2], the EC50 amounted to 1680 nM and the Emax amounted to 77%.
